Laboratory results taken from patent EP4722207A1, “OXOISOINDOLINYL-SUBSTITUTED TETRAHYDROPYRIMIDINEDIONE DERIVATIVE AND USE THEREOF” (Gluetacs Therapeutics (Shanghai) Co., Ltd., priority 2023, dated 2024).

Columns and labels:
Type in all cases: cell-based
Conditions in all cases: 24 hours of compound treatment, 50 nM and 500 nM
GSPT1 = biological target: T1, GSPT1 (Homo sapiens, UniProt P15170+Q96SW2); test: Western-blot assay, substrate protein degradation in hPBMCs: GSPT1
T1 construct: effects of the compounds of the present disclosure on the expression of target proteins in cells; endogenous in cells; host or cells: human PBMCs (hPBMCs)

IKZF3 = biological target: T2, IKZF3 (Homo sapiens, UniProt Q96SW2+Q9UKT9); test: Western-blot assay, substrate protein degradation in hPBMCs: IKZF3
T2 construct: effects of the compounds of the present disclosure on the expression of target proteins in cells; endogenous in cells; host or cells: human PBMCs (hPBMCs)

WEE1 = biological target: T3, WEE1 (Homo sapiens, UniProt P30291+Q96SW2); test: Western-blot assay, substrate protein degradation in hPBMCs: WEE1
T3 construct: effects of the compounds of the present disclosure on the expression of target proteins in cells; endogenous in cells; host or cells: human PBMCs (hPBMCs)

IKZF1 = biological target: T4, IKZF1 (Homo sapiens, UniProt Q13422+Q96SW2); test: Western-blot assay, substrate protein degradation in hPBMCs: IKZF1
T4 construct: effects of the compounds of the present disclosure on the expression of target proteins in cells; endogenous in cells; host or cells: human PBMCs (hPBMCs)

IKZF2 = biological target: T5, IKZF2 (Homo sapiens, UniProt Q96SW2+Q9UKS7); test: Western-blot assay, substrate protein degradation in hPBMCs: IKZF2
T5 construct: effects of the compounds of the present disclosure on the expression of target proteins in cells; endogenous in cells; host or cells: human PBMCs (hPBMCs)

CK1α = biological target: T6, CK1α (Homo sapiens, UniProt P48729+Q96SW2); test: Western-blot assay, substrate protein degradation in hPBMCs: CK1α
T6 construct: effects of the compounds of the present disclosure on the expression of target proteins in cells; endogenous in cells; host or cells: human PBMCs (hPBMCs)

T3 sequence (P30291 whole entry): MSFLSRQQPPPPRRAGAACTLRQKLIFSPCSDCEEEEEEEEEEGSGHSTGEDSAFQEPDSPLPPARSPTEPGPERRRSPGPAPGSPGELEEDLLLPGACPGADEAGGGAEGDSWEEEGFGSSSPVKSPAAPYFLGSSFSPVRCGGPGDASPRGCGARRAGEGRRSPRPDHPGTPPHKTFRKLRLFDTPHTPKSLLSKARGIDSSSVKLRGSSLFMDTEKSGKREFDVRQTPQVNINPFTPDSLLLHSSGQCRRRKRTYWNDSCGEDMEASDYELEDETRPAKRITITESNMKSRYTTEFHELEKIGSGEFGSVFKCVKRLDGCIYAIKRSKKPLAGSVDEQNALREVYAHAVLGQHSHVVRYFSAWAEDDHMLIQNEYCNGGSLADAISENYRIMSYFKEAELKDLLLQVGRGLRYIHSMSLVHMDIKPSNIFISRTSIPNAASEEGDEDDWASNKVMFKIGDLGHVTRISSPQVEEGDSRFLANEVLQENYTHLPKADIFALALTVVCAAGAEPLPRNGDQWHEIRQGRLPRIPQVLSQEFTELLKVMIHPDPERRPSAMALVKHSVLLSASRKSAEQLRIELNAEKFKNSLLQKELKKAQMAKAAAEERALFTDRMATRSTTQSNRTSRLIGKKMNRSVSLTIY
T3 sequence (Q96SW2 whole entry): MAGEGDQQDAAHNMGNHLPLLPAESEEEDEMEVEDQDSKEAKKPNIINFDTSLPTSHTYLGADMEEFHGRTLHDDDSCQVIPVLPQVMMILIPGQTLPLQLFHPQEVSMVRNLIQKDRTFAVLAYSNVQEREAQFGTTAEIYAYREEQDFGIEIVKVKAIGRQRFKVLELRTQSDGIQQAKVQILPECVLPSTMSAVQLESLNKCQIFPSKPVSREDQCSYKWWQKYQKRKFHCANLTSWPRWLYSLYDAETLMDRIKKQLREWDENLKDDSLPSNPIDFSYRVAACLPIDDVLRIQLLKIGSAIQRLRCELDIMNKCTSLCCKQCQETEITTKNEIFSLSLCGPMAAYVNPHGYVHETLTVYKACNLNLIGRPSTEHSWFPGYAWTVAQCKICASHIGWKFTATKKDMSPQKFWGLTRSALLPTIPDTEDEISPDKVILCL
T3 sequence (Q16531 whole entry partner): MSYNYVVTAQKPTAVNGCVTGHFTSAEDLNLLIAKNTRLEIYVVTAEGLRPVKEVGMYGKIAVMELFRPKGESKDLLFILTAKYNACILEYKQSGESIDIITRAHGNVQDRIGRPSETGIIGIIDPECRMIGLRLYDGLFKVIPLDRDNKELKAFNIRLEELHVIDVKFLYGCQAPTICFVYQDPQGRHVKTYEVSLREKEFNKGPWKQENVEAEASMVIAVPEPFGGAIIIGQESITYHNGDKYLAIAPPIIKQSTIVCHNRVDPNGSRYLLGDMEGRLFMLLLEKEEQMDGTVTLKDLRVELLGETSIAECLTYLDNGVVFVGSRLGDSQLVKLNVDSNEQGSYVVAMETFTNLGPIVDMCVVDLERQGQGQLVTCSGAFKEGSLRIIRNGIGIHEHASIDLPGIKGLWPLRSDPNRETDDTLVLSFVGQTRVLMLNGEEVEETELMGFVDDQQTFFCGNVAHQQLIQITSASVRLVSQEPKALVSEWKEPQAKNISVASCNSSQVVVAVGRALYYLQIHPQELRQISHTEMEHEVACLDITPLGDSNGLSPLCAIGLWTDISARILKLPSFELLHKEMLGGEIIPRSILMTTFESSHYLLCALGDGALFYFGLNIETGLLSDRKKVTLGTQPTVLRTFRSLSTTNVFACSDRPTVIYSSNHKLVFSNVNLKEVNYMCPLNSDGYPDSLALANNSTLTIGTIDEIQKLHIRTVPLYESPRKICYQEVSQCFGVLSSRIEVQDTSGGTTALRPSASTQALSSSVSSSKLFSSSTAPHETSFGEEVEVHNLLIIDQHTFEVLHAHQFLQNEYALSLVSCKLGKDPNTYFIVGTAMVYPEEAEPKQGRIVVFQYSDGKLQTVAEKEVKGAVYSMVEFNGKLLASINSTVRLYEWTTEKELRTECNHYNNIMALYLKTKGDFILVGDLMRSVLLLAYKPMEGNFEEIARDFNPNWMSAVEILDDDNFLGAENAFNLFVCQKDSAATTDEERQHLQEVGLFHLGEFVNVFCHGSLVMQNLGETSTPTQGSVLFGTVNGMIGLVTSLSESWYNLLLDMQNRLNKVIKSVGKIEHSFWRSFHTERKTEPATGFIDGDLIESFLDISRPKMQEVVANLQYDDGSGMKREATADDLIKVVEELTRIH
T1 sequence (P15170 whole entry): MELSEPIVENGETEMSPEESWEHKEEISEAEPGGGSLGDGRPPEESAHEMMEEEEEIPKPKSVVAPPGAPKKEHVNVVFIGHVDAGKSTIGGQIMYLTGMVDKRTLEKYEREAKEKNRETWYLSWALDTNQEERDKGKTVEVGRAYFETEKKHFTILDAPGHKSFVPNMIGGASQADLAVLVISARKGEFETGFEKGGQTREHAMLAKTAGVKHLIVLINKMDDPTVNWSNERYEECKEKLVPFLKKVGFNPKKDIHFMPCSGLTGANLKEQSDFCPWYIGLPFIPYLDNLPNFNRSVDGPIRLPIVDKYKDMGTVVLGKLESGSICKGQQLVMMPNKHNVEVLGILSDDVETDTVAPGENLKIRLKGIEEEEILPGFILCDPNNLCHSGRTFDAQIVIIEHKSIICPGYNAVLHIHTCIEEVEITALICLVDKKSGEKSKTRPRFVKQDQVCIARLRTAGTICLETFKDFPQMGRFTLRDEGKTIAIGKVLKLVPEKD
T1 sequence (Q96SW2 whole entry): as the sequence (Q96SW2 whole entry) above
T1 sequence (Q16531 whole entry partner): as the sequence (Q16531 whole entry partner) above
T4 sequence (Q13422 whole entry): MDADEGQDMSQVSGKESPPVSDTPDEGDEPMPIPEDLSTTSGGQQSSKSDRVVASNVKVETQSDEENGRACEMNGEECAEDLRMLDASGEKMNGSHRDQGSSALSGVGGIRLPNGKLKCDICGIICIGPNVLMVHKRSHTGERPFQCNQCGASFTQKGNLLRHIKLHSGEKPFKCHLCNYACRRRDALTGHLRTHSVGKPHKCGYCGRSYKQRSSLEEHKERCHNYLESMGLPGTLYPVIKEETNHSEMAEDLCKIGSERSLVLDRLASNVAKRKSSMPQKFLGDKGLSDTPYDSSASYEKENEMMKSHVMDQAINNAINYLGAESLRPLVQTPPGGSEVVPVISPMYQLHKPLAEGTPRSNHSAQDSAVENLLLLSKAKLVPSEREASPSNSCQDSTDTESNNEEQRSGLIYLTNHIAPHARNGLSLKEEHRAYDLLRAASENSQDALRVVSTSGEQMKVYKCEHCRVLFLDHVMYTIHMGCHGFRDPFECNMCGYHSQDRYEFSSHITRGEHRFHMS
T4 sequence (Q96SW2 whole entry): as the sequence (Q96SW2 whole entry) above
T4 sequence (Q16531 whole entry partner): as the sequence (Q16531 whole entry partner) above
T2 sequence (Q9UKT9 whole entry): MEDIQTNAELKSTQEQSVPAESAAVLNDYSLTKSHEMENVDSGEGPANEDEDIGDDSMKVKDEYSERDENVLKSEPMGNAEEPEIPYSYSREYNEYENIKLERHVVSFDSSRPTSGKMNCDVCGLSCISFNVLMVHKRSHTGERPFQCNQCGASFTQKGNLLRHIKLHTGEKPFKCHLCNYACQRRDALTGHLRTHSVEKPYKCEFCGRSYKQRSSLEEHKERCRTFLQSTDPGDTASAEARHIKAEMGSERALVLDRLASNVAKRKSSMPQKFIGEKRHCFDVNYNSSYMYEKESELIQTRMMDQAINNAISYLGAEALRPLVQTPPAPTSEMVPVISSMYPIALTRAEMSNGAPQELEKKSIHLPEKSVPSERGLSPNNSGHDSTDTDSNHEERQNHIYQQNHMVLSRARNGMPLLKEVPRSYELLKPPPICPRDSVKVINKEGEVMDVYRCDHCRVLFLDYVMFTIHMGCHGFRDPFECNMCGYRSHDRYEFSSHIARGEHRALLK
T2 sequence (Q96SW2 whole entry): as the sequence (Q96SW2 whole entry) above
T2 sequence (Q16531 whole entry partner): as the sequence (Q16531 whole entry partner) above
T5 sequence (Q9UKS7 whole entry): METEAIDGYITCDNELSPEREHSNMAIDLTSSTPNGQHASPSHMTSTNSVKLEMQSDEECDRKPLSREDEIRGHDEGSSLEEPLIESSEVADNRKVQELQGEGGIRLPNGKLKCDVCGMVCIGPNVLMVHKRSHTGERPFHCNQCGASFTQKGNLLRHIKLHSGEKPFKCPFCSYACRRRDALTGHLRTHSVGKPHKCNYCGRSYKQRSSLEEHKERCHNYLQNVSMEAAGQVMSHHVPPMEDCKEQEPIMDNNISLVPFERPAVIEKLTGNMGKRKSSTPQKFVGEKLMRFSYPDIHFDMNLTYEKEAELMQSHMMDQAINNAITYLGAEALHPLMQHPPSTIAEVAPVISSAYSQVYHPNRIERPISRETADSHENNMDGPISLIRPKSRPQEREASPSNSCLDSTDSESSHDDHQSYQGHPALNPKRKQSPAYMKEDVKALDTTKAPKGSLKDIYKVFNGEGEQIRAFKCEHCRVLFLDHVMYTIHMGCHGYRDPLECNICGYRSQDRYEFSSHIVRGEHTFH
T5 sequence (Q96SW2 whole entry): as the sequence (Q96SW2 whole entry) above
T5 sequence (Q16531 whole entry partner): as the sequence (Q16531 whole entry partner) above

## O=C1CCN(N2C(=O)c3ccc(CN4CCC(c5ccoc5)CC4)cc3C2=O)C(=O)N1 [GT-07422, 2-(2,4-dioxotetrahydropyrimidin-1(2H)-yl)-5-((4-(furan-3-yl)piperidin-1-yl)methyl)isoindoline-1,3-dione]
GSPT1
  substrate protein remaining % GSPT1: A (0% ≤ substrate protein remaining % ≤ 80%)
IKZF3
  substrate protein remaining % IKZF3: B (80%< substrate protein remaining %≤ 100%)
WEE1
  substrate protein remaining % WEE1: B (80%< substrate protein remaining %≤ 100%)
IKZF1
  substrate protein remaining % IKZF1: B (80%< substrate protein remaining %≤ 100%)
IKZF2
  substrate protein remaining % IKZF2: B (80%< substrate protein remaining %≤ 100%)
CK1α
  substrate protein remaining % CK1α: A (0% ≤ substrate protein remaining % ≤ 80%)

## Cc1cc(C2=CCN(Cc3ccc4c(c3)C(=O)N(N3CCC(=O)NC3=O)C4=O)CC2)cs1 [GT-07423, 2-(2,4-dioxotetrahydropyrimidin-1(2H)-yl)-5-((4-(5-methylthiophen-3-yl)-3,6-dihydropyridin-1(2H)-yl)methyl)isoindoline-1,3-dione]
GSPT1
  substrate protein remaining % GSPT1: A (0% ≤ substrate protein remaining % ≤ 80%)
IKZF3
  substrate protein remaining % IKZF3: A (0% ≤ substrate protein remaining % ≤ 80%)
WEE1
  substrate protein remaining % WEE1: A (0% ≤ substrate protein remaining % ≤ 80%)
IKZF1
  substrate protein remaining % IKZF1: B (80%< substrate protein remaining %≤ 100%)
IKZF2
  substrate protein remaining % IKZF2: B (80%< substrate protein remaining %≤ 100%)
CK1α
  substrate protein remaining % CK1α: A (0% ≤ substrate protein remaining % ≤ 80%)

## O=C1CCN(N2C(=O)c3ccc(CN4CCC(c5cccs5)CC4)cc3C2=O)C(=O)N1 [GT-07424, 2-(2,4-dioxotetrahydropyrimidin-1(2H)-yl)-5-((4-(thiophen-2-yl)piperidin-1-yl)methyl)isoindoline-1,3-dione]
GSPT1
  substrate protein remaining % GSPT1: A (0% ≤ substrate protein remaining % ≤ 80%)
IKZF3
  substrate protein remaining % IKZF3: A (0% ≤ substrate protein remaining % ≤ 80%)
WEE1
  substrate protein remaining % WEE1: A (0% ≤ substrate protein remaining % ≤ 80%)
IKZF1
  substrate protein remaining % IKZF1: A (0% ≤ substrate protein remaining % ≤ 80%)
IKZF2
  substrate protein remaining % IKZF2: B (80%< substrate protein remaining %≤ 100%)
CK1α
  substrate protein remaining % CK1α: B (80%< substrate protein remaining %≤ 100%)

## O=C1CCN(N2Cc3cc(CN4C[C@H]5C[C@@H]4CN5c4cccc(Cl)c4Cl)ccc3C2=O)C(=O)N1 [GT-07427, 1-(5-(((1R,4R)-5-(2,3-dichlorophenyl)-2,5-diazabicyclo[2.2.1]heptan-2-yl)methyl)-1-oxoisoindolin-2-yl)dihydropyrimidine-2,4(1H,3H)-dione]
GSPT1
  substrate protein remaining % GSPT1: A (0% ≤ substrate protein remaining % ≤ 80%)
IKZF3
  substrate protein remaining % IKZF3: B (80%< substrate protein remaining %≤ 100%)
WEE1
  substrate protein remaining % WEE1: A (0% ≤ substrate protein remaining % ≤ 80%)
IKZF1
  substrate protein remaining % IKZF1: A (0% ≤ substrate protein remaining % ≤ 80%)
IKZF2
  substrate protein remaining % IKZF2: B (80%< substrate protein remaining %≤ 100%)
CK1α
  substrate protein remaining % CK1α: A (0% ≤ substrate protein remaining % ≤ 80%)

## O=C1CCN(N2Cc3cc(CN4CC5CCC4CN5c4cccc(Cl)c4Cl)ccc3C2=O)C(=O)N1 (stereo not drawn) [GT-07428, 1-(5-((5-(2,3-dichlorophenyl)-2,5-diazabicyclo[2.2.2]octan-2-yl)methyl)-1-oxoisoindolin-2-yl)dihydropyrimidine-2,4(1H,3H)-dione]
GSPT1
  substrate protein remaining % GSPT1: A (0% ≤ substrate protein remaining % ≤ 80%)
IKZF3
  substrate protein remaining % IKZF3: B (80%< substrate protein remaining %≤ 100%)
WEE1
  substrate protein remaining % WEE1: B (80%< substrate protein remaining %≤ 100%)
IKZF1
  substrate protein remaining % IKZF1: A (0% ≤ substrate protein remaining % ≤ 80%)
IKZF2
  substrate protein remaining % IKZF2: B (80%< substrate protein remaining %≤ 100%)
CK1α
  substrate protein remaining % CK1α: A (0% ≤ substrate protein remaining % ≤ 80%)

## O=C1CCN(N2Cc3cc(CN4CC5CCC(C4)N5c4cccc(Cl)c4Cl)ccc3C2=O)C(=O)N1 [GT-07429, 1-(5-((8-(2,3-dichlorophenyl)-3,8-diazabicyclo[3.2.1]octan-3-yl)methyl)-1-oxoisoindolin-2-yl)dihydropyrimidine-2,4(1H,3H)-dione]
GSPT1
  substrate protein remaining % GSPT1: B (80%< substrate protein remaining %≤ 100%)
IKZF3
  substrate protein remaining % IKZF3: B (80%< substrate protein remaining %≤ 100%)
WEE1
  substrate protein remaining % WEE1: B (80%< substrate protein remaining %≤ 100%)
IKZF1
  substrate protein remaining % IKZF1: A (0% ≤ substrate protein remaining % ≤ 80%)
IKZF2
  substrate protein remaining % IKZF2: B (80%< substrate protein remaining %≤ 100%)
CK1α
  substrate protein remaining % CK1α: B (80%< substrate protein remaining %≤ 100%)

## O=C1CCN(N2Cc3cc(CN4C5CCC4CN(c4cccc(Cl)c4Cl)C5)ccc3C2=O)C(=O)N1 [GT-07430, 1-(5-((3-(2,3-dichlorophenyl)-3,8-diazabicyclo[3.2.1]octan-8-yl)methyl)-1-oxoisoindolin-2-yl)dihydropyrimidine-2,4(1H,3H)-dione]
GSPT1
  substrate protein remaining % GSPT1: A (0% ≤ substrate protein remaining % ≤ 80%)
IKZF3
  substrate protein remaining % IKZF3: B (80%< substrate protein remaining %≤ 100%)
WEE1
  substrate protein remaining % WEE1: B (80%< substrate protein remaining %≤ 100%)
IKZF1
  substrate protein remaining % IKZF1: A (0% ≤ substrate protein remaining % ≤ 80%)
IKZF2
  substrate protein remaining % IKZF2: B (80%< substrate protein remaining %≤ 100%)
CK1α
  substrate protein remaining % CK1α: A (0% ≤ substrate protein remaining % ≤ 80%)

## O=C1CCN(N2Cc3cc(CN4CCCN(c5cccc(Cl)c5Cl)CC4)ccc3C2=O)C(=O)N1 [GT-07431, 1-(5-((4-(2,3-dichlorophenyl)-1,4-diazepan-1-yl)methyl)-1-oxoisoindolin-2-yl)dihydropyrimidine-2,4(1H,3H)-dione]
GSPT1
  substrate protein remaining % GSPT1: B (80%< substrate protein remaining %≤ 100%)
IKZF3
  substrate protein remaining % IKZF3: B (80%< substrate protein remaining %≤ 100%)
WEE1
  substrate protein remaining % WEE1: B (80%< substrate protein remaining %≤ 100%)
IKZF1
  substrate protein remaining % IKZF1: A (0% ≤ substrate protein remaining % ≤ 80%)
IKZF2
  substrate protein remaining % IKZF2: B (80%< substrate protein remaining %≤ 100%)
CK1α
  substrate protein remaining % CK1α: A (0% ≤ substrate protein remaining % ≤ 80%)

## CC1CN(C(c2ccccc2)c2ccccc2)CC(C)N1Cc1ccc2c(c1)CN(N1CCC(=O)NC1=O)C2=O (stereo not drawn) [GT-07433, 1-(5-((4-benzhydryl-2,6-dimethylpiperazin-1-yl)methyl)-1-oxoisoindolin-2-yl)dihydropyrimidine-2,4(1H,3H)-dione]
GSPT1
  substrate protein remaining % GSPT1: B (80%< substrate protein remaining %≤ 100%)
IKZF3
  substrate protein remaining % IKZF3: B (80%< substrate protein remaining %≤ 100%)
WEE1
  substrate protein remaining % WEE1: B (80%< substrate protein remaining %≤ 100%)
IKZF1
  substrate protein remaining % IKZF1: B (80%< substrate protein remaining %≤ 100%)
IKZF2
  substrate protein remaining % IKZF2: A (0% ≤ substrate protein remaining % ≤ 80%)
CK1α
  substrate protein remaining % CK1α: A (0% ≤ substrate protein remaining % ≤ 80%)

## O=C1CCN(N2C(=O)c3ccc(CN4CC5CC(C4)N5c4cccc(Cl)c4Cl)cc3C2=O)C(=O)N1 [GT-07434, 5-((6-(2,3-dichlorophenyl)-3,6-diazabicyclo[3.1.1]heptan-3-yl)methyl)-2-(2,4-dioxotetrahydropyrimidin-1(2H)-yl)isoindoline-1,3-dione]
GSPT1
  substrate protein remaining % GSPT1: B (80%< substrate protein remaining %≤ 100%)
IKZF3
  substrate protein remaining % IKZF3: B (80%< substrate protein remaining %≤ 100%)
WEE1
  substrate protein remaining % WEE1: B (80%< substrate protein remaining %≤ 100%)
IKZF1
  substrate protein remaining % IKZF1: B (80%< substrate protein remaining %≤ 100%)
IKZF2
  substrate protein remaining % IKZF2: B (80%< substrate protein remaining %≤ 100%)
CK1α
  substrate protein remaining % CK1α: A (0% ≤ substrate protein remaining % ≤ 80%)

## O=C1CCN(N2C(=O)c3ccc(CN4C[C@H]5C[C@@H]4CN5c4cccc(Cl)c4Cl)cc3C2=O)C(=O)N1 [GT-07435, 5-(((1R,4R)-5-(2,3-dichlorophenyl)-2,5-diazabicyclo[2.2.1]heptan-2-yl)methyl)-2-(2,4-dioxotetrahydropyrimidin-1(2H)-yl)isoindoline-1,3-dione]
GSPT1
  substrate protein remaining % GSPT1: B (80%< substrate protein remaining %≤ 100%)
IKZF3
  substrate protein remaining % IKZF3: B (80%< substrate protein remaining %≤ 100%)
WEE1
  substrate protein remaining % WEE1: B (80%< substrate protein remaining %≤ 100%)
IKZF1
  substrate protein remaining % IKZF1: B (80%< substrate protein remaining %≤ 100%)
IKZF2
  substrate protein remaining % IKZF2: B (80%< substrate protein remaining %≤ 100%)
CK1α
  substrate protein remaining % CK1α: A (0% ≤ substrate protein remaining % ≤ 80%)

## O=C1CCN(N2C(=O)c3ccc(CN4CC5CCC4CN5c4cccc(Cl)c4Cl)cc3C2=O)C(=O)N1 (stereo not drawn) [GT-07436, 5-((5-(2,3-dichlorophenyl)-2,5-diazabicyclo[2.2.2]octan-2-yl)methyl)-2-(2,4-dioxotetrahydropyrimidin-1(2H)-yl)isoindoline-1,3-dione]
GSPT1
  substrate protein remaining % GSPT1: B (80%< substrate protein remaining %≤ 100%)
IKZF3
  substrate protein remaining % IKZF3: B (80%< substrate protein remaining %≤ 100%)
WEE1
  substrate protein remaining % WEE1: B (80%< substrate protein remaining %≤ 100%)
IKZF1
  substrate protein remaining % IKZF1: B (80%< substrate protein remaining %≤ 100%)
IKZF2
  substrate protein remaining % IKZF2: A (0% ≤ substrate protein remaining % ≤ 80%)
CK1α
  substrate protein remaining % CK1α: A (0% ≤ substrate protein remaining % ≤ 80%)

## O=C1CCN(N2C(=O)c3ccc(CN4CC5CCC(C4)N5c4cccc(Cl)c4Cl)cc3C2=O)C(=O)N1 [GT-07437, 5-((8-(2,3-dichlorophenyl)-3,8-diazabicyclo[3.2.1]octan-3-yl)methyl)-2-(2,4-dioxotetrahydropyrimidin-1(2H)-yl)isoindoline-1,3-dione]
GSPT1
  substrate protein remaining % GSPT1: A (0% ≤ substrate protein remaining % ≤ 80%)
IKZF3
  substrate protein remaining % IKZF3: B (80%< substrate protein remaining %≤ 100%)
WEE1
  substrate protein remaining % WEE1: A (0% ≤ substrate protein remaining % ≤ 80%)
IKZF1
  substrate protein remaining % IKZF1: B (80%< substrate protein remaining %≤ 100%)
IKZF2
  substrate protein remaining % IKZF2: B (80%< substrate protein remaining %≤ 100%)
CK1α
  substrate protein remaining % CK1α: A (0% ≤ substrate protein remaining % ≤ 80%)
